Legend:
[1] = tested on: total antioxidant capacity (TAC); assay: Serum total antioxidant capacity (TAC), Example 1; type: in vivo, dog; settings: for Change in TAC, post-run minus pre-run: following 15 mile long run at 13 wk, mean ± SEM
Procedure: Blood Analysis: Serum samples were taken at three different times from each dog during the 90 day period. The blood samples were collected as follows: 1.) just prior to scanning each dog for body composition at the beginning of the study, 2.) prior to the long run on the 13th week, and 3.) following the long run on the 13th week. The serum samples were analyzed for Phosphocreatine Kinase and Canine Myoglobin to determine the amount of muscle protein leakage that occurred following the long run and TBARS and Total Antioxidant Capacity (TAC) were determined to evaluate the antioxidant status of each of the test dogs during the exercise program. The final blood sample was taken 24 hr after the long run to obtain maximum protein leakage based on previous similar types of exercise research with human athletes. Biomarkers and Assay Methods: Blood was drawn from each dog using a serum separator tube at three different times during the 90 day period: 1.) just prior to scanning each dog for body composition at the beginning of the study, 2.) prior to the long run on the 13th week, and 3.) following the long run on the 13th week. The final blood sample was taken 24 hr after the long run to obtain maximum protein leakage based on previous similar types of exercise research with human athletes. Each time after the blood was drawn it was allowed to clot before being centrifuged for 15 min at 2000 g at 4° C. Serum was aliquoted into 1.5 mL microcentrifuge tubes and stored at −80° C. until assays were ran following the end of the study. Creatine kinase (CK) and canine myoglobin were measured to determine the amount of muscle protein leakage that occurred following the long run. Thiobarbituric acid reactive substances (TBARS) and total antioxidant capacity (TAC) were measured to evaluate the antioxidant status of each of the test dogs during the exercise program. Serum samples were analyzed for total antioxidant capacity (TAC) and thiobarbituric acid reactive substances (TBARS) using commercially available colorimetric kits supplied by Cayman Chemical Company (Ann Arbor, Mich.) per manufacturer instructions. Serum canine myoglobin levels were determined using a commercially available ELISA supplied by Innovate Research (Novi, Mich.) per manufacturer instructions. Creatine kinase activity was determined colorimetrically using a commercially available kit supplied by BioVision (San Francisco, Calif.).

[2] = tested on: Labrador Retrievers; assay: Energy expenditure on treadmill (Oxymax open-circuit calorimeter), Example 2 part three; type: in vivo, dog; settings: for Max energy expenditure / Mean energy expenditure: females
Procedure: Sixteen Labrador Retrievers ranging in age from 1.5 to 3 years were fed low carnitine basal diets with and without added L-carnitine for a 37 week period that included part one and two of the study. Eight (4 male and 4 female) of the test L-carnitine dogs were each fed 3.75 g sugar and 250 mg of L-carnitine, while the other eight dogs (4 male and 4 female) were fed only 4 g of sugar each day for the experimental period. The sixteen test dogs were fed the same diet for parts one, two, and three of the study. During part three of the study, the 16 test dogs were exclusively exercised on the industry sized canine treadmill. Initial Oxymax data was developed for each of the test dogs at various times and speeds in order to determine appropriate speeds on the treadmill required to achieve maximum VO2 concentration. The dogs were run for 15 minutes at 6.5 mph to determine VO2 max. The 16 test dogs were then ran at 50% VO2 max (equivalent to 4 mph) on the treadmill for 30 minutes to determine total energy expenditure (heat production). The system used to acquire information on volume of oxygen consumption and energy expenditure was an Open-Circuit calorimeter, which employed air from the surrounding environment. A mask specially designed for dogs was used to recover the gas sample and ventilate the dog. A small sample was drawn for gas analysis and dried to assure that the readings were made in a sample that was not under the influence of water vapor air exiting the chamber. The O2 and CO2 sensors were connected to software, and instant values of O2 and CO2 were measured. The 16 test dogs (8 L-carnitine dogs, 4 male and 4 female, and 8 control dogs, 4 male and 4 female) were exercised at a warm up speed of 2 mph for 5 minutes prior to running at VO2 max for 15 minutes at 6.5 mph. The next week, the test dogs ran again at a warm up speed of 2 mph for 5 minutes and then at 50% VO2 max for 30 minutes at 4 mph. Energy expenditure was calculated using the formula for dogs (EE (kcal/d)=3.94 VO2+1.11 V CO2) (Weir, […]). The maximum and mean energy expenditure was also calculated. Energy expenditure was reported at Kcal/metabolic body weight (Kg^0.75)/d as normally expressed in the literature for dogs.

[3] = Ex.2 part three, 250 mg/d, 6.5 mph (VO2 max)
[4] = Ex.2 part three, 250 mg/d, 50% VO2 max (4 mph, 30 min)
[5] = combined speeds 4.0 and 6.5 (50% VO2 Max and VO2 Max), diet main effect, both genders
[6] = combined speeds 4.0 and 6.5 (50% VO2 Max and VO2 Max), female dogs
[7] = combined speeds 4.0 and 6.5 (50% VO2 Max and VO2 Max), male dogs
[8] = treadmill speed 4 for 30 min (50% VO2 Max), diet main effect, both genders
[9] = treadmill speed 4 for 30 min (50% VO2 Max), female dogs
[10] = treadmill speed 4 for 30 min (50% VO2 Max), male dogs
[11] = treadmill speed 6.5 for 15 min (VO2 Max), diet main effect, both genders
[12] = treadmill speed 6.5 for 15 min (VO2 Max), female dogs
[13] = treadmill speed 6.5 for 15 min (VO2 Max), male dogs

C[N+](C)(C)C[C@H](O)CC(=O)[O-] [L-carnitine] was tested, and the “TAC Least Sq Mean” value ([1]; Baseline) was 0.1066 mM Trolox Equiv, the “TAC Least Sq Mean” value ([1]; Baseline, F) was 0.1064 mM Trolox Equiv and the “TAC Least Sq Mean” value ([1]; Baseline, M) was 0.1067 mM Trolox Equiv. For the same compound, the “TAC, serum, Mean” value ([1]; Ex.1, 250 mg/d, Baseline, both sexes) was 0.107 mM Trolox Equiv, the “TAC, serum, Mean” value ([1]; Ex.1, 250 mg/d, Baseline, females) was 0.106 mM Trolox Equiv and the “TAC, serum, Mean” value ([1]; Ex.1, 250 mg/d, Baseline, males) was 0.107 mM Trolox Equiv. For the same compound, the “TAC, serum, Mean” value ([1]; Ex.1, 250 mg/d, Post-run, both sexes) was 0.087 mM Trolox Equiv, the “TAC, serum, Mean” value ([1]; Ex.1, 250 mg/d, Post-run, females) was 0.069 mM Trolox Equiv and the “TAC, serum, Mean” value ([1]; Ex.1, 250 mg/d, Post-run, males) was 0.102 mM Trolox Equiv. The “TAC, serum, Mean” value ([1]; Ex.1, 250 mg/d, Pre-run, both sexes) was 0.118 mM Trolox Equiv, the “TAC, serum, Mean” value ([1]; Ex.1, 250 mg/d, Pre-run, females) was 0.106 mM Trolox Equiv and the “TAC, serum, Mean” value ([1]; Ex.1, 250 mg/d, Pre-run, males) was 0.128 mM Trolox Equiv. For the same compound, the “Effect on TAC of the test dogs” value ([1]; Ex.1, 250 mg/d, during the study, vs control) was “did not have a significant effect”, the “Change in TAC, post-run minus pre-run” value ([1]; Ex.1, 250 mg/d, both sexes) was −0.03 ± 0.01 n = 20 mM Trolox Equiv and the “Change in TAC, post-run minus pre-run” value ([1]; Ex.1, 250 mg/d, females) was −0.04 ± 0.01 n = 9 mM Trolox Equiv. The “Change in TAC, post-run minus pre-run” value ([1]; Ex.1, 250 mg/d, males) was −0.03 ± 0.01 n = 11 mM Trolox Equiv, the “TAC Least Sq Mean” value ([1]; Post-run) was 0.08522 mM Trolox Equiv and the “TAC Least Sq Mean” value ([1]; Post-run, F) was 0.06866 mM Trolox Equiv. The “TAC Least Sq Mean” value ([1]; Post-run, M) was 0.1018 mM Trolox Equiv, the “TAC Least Sq Mean” value ([1]; Pre-run) was 0.1171 mM Trolox Equiv and the “TAC Least Sq Mean” value ([1]; Pre-run, F) was 0.1063 mM Trolox Equiv. For the same compound, the “TAC Least Sq Mean” value ([1]; Pre-run, M) was 0.128 mM Trolox Equiv, the “TAC Least Sq Mean” value ([1]; Treatment * Sex, F) was 0.1064 mM Trolox Equiv and the “TAC Least Sq Mean” value ([1]; Treatment * Sex, M) was 0.1067 mM Trolox Equiv. For the same compound, the “TAC Least Sq Mean” value ([1]; Treatment level, all dogs) was 0.1066 mM Trolox Equiv, the “Total Antioxidant capacity, mixed model Estimate, term Time[Post-run-Pre-run] * Treatment[L-carnitine]” value ([1]; serum, model term) was −0.001428 and the “Total Antioxidant capacity, mixed model Estimate, term Time[Post-run-Pre-run] * Treatment[L-carnitine] * Sex[F]” value ([1]; serum, model term) was −0.001227. For the same compound, the “Total Antioxidant capacity, mixed model Estimate, term Time[Pre-run-Baseline] * Treatment[L-carnitine]” value ([1]; serum, model term) was −0.00085, the “Total Antioxidant capacity, mixed model Estimate, term Time[Pre-run-Baseline] * Treatment[L-carnitine] * Sex[F]” value ([1]; serum, model term) was 0.001958 and the “Total Antioxidant capacity, mixed model Estimate, term Treatment[L-carnitine]” value ([1]; serum, model term) was 0.001356. The “Total Antioxidant capacity, mixed model Estimate, term Treatment[L-carnitine] * Sex[F]” value ([1]; serum, model term) was 0.001671, the “Additional heat expenditure vs non-L-carnitine diet” value ([2]; Ex.2 part three, 250 mg/d, female running at 50% of VO2 Max) was 122 kcal/kg BW^0.75/d and the Max energy expenditure [2, 3] was 961 kcal/kgBW^0.75/d. It also gave a Mean energy expenditure [2, 3] of 815 kcal/kgBW^0.75/d, a Max energy expenditure [2, 4] of 794 kcal/kg^0.75/d and a Mean energy expenditure [2, 4] of 598 kcal/kg^0.75/d. For the same compound, the “Max and mean energy expenditure vs low carnitine dogs” value ([2]; Ex.2 part three, 250 mg/d, males, Tables 35 and 36) was “not significantly different”, the “Quantity of low Carnitine basal food saved” value ([2]; Ex.2 part three, 250 mg/d, working female running at 50% VO2 Max (4 mph) for one hour) was 15.18 g and the “Max EE” value [2, 5] was 793 Kcal/Kg^0.75/d. For the same compound, the “Mean EE” value [2, 5] was 675 Kcal/Kg^0.75/d, the “Max EE” value [2, 6] was 838 Kcal/Kg^0.75/d and the “Mean EE” value [2, 6] was 679 Kcal/Kg^0.75/d. For the same compound, the “Max EE” value [2, 7] was 748 Kcal/Kg^0.75/d, the “Mean EE” value [2, 7] was 671 Kcal/Kg^0.75/d and the “Max EE” value [2, 8] was 716 Kcal/Kg^0.75/d. For the same compound, the “Mean EE” value [2, 8] was 576 Kcal/Kg^0.75/d, the “Max EE” value [2, 9] was 794 a Kcal/Kg^0.75/d and the “Mean EE” value [2, 9] was 598 a Kcal/Kg^0.75/d. The “Max EE” value [2, 10] was 637 ab Kcal/Kg^0.75/d, the “Mean EE” value [2, 10] was 554 ab Kcal/Kg^0.75/d and the “Max EE” value [2, 11] was 909 Kcal/Kg^0.75/d. The “Mean EE” value [2, 11] was 801 Kcal/Kg^0.75/d, the “Max EE” value [2, 12] was 961 Kcal/Kg^0.75/d and the “Mean EE” value [2, 12] was 815 Kcal/Kg^0.75/d. The “Max EE” value [2, 13] was 858 Kcal/Kg^0.75/d and the “Mean EE” value [2, 13] was 788 Kcal/Kg^0.75/d.

— patent publication US10016382B2, “Method for decreasing skeletal muscle damage and/or oxidative stress in mammals” (LONZA INC., priority 2014, dated 2018)
